The results in this text go back to US20040219202A1, “Pharmaceutical composition comprising lipids comprising a polar and a nonpolar moiety” (priority 2001, published 2004).

The structures appear in SMILES notation. “Also recorded” adds a separate entry of the source.

Format in all cases: cell-based
The test system of one test is Panc-1 cells. The test can be described thus: Transfection of Panc-1 cells with LMDs (liposome:mu:DNA), β-galactosidase reporter assay. The conditions noted are these: LMDs composed entirely of DOTAP or DOTAP-analogue liposomes, FIG. 19. The method, then: (§1) Purity of the lipids was checked by TLC or HPLC. All lipids were stored as stock solutions in anhydrous CH2Cl2, at concentrations of either 5 mg/ml or 10 mg/ml, at −80° C., under Ar. In order to prepare cationic liposomes, lipids were added to a round-bottomed flask, via syringe, under Ar, and further freshly distilled CH2Cl2 was added, if necessary, to give a concentration of around 2.5 mg/ml. Then, 4 mM HEPES pH 7.0 (1 ml) was added, and the biphasic system was swirled to mix. A liposomal suspension was created by removing the organic solvent under reduced pressure at 25° C., followed by sonication for 2-5 min. in a water bath sonicator. Doubly-distilled water was added, if necessary, to return the total volume to 1 ml. All liposomal solutions were prepared at a final concentration of 5 mg/ml. The pH of the liposomal suspension was checked by pH Boy (Camlab Ltd., Over, Cambridgeshire, UK) and adjusted to pH 7.0±0.1 with concentrated aqueous solutions of HCl and NaOH.
(§2) Liposomes were extruded (Extruder, Northern Upids, Inc., Vancouver, BC, Canada) by passing through two 100 nm polycarbonate filters (Isopore™ Membrane Filters, Millipore (UK) Ltd., Watford, Hertfordshire, UK) ten times. For each preparation, the size distribution of liposomes was measured by photon correlation spectroscopy (PCS) (Coulter® N4 Plus Submicron Particle Sizer, Beckman Coulter, High Wycombe, Buckinghamshire, UK). For phospholipid-containing liposomes, phospholipid concentrations were checked by the Stewart assay.^23 In each case, a final lipid concentration of 4.7±0.1 mg/ml was observed. For non-phospholipid containing liposomes, lipid loss was also inevitable on extrusion. For all fast-extruding liposomal suspensions, total lipid concentration was assumed to be 4.7 mg/ml. For slower extrusions, total lipid concentrations were assumed to be 4.3 mg/ml. Very slowly extruding liposomes were extruded three times only and assumed to be 4.7 mg/ml.
(§3) Plasmid DNA containing the β-galactosidase gene (pNGVL1-nt-beta-gal; 7.53 kbp) was stored as frozen aliquots at −80° C., at a concentration of 1.2 mg/ml; μ (mu) peptide (adenoviral core peptide [H2N-Met-Arg-Arg-Ala-His-His-Arg-Arg-Arg-Arg-Ala-Ser-His-Arg-Arg-Met-Arg-Gly-Gly-CO2H]) was synthesised as described previously,^7 and maintained at 4° C. in aliquots of 1 mg/ml. Mu-DNA complexes were made by adding plasmid DNA to mu in 4 mM HEPES at a ratio of 1:0.6 (w/w) with fast vortexing. LMDs were prepared by complexing mu-DNA particles with cationic liposomes (as prepared above) in a ratio of 1:12 (w/w), such that all LMDs for all formulations were substantially cationic. For each preparation, the size distribution of LMDs was measured by PCS.
Panc-1 cells were maintained in RPMI/10% FCS/1% penicillin-streptomycin (Gibco™, Invitrogen Corporation, Paisley, Scotland, UK) at 37° C./5% CO2 in a humidified atmosphere. Twenty-four hours prior to transfection, 30 000 cells per well were seeded in 48 well microtitre plates (Corning Costar, Merck Ltd., Lutterworth, Leicestershire, UK) in 500 μl medium. As a control, plasmid DNA (0.5 μg in 200 μl medium) was added to a well. As a positive control, 1.5 μl Transfast™ (Promega Corporation, Madison, Wis., USA; prepared according to the supplier's protocol) in 200 μl medium was complexed with plasmid DNA (0.5 μg) and added to a well. 5 μl (0.5 μg DNA) of LMD formulation was added to each well. All experiments were performed in quadruplicate. The plate was swirled for 30 s, and incubated for 1 h at 37° C. Medium was then removed, and 500 μl of fresh medium was added. The cells were incubated at 37° C. for a further 24 h.
Medium was aspirated from the wells and the cell layer was washed with phosphate buffered saline (PBS) (Gibco™). The cells of each well were lysed in 150 μl lysis reagent (prepared according to the supplier's protocol; β-Gal Reporter Gene Assay, Roche Diagnostics GmbH, D-68305 Mannheim, Germany) at room temperature for 30 min. […]
On the technique in general: Reporter assays use an easily measured gene product as a stand-in for the process of interest.

The test system of a further test is COS-7 cells. In words: Transfection of COS-7 cells with LMDs (liposome:mu:DNA), β-galactosidase reporter assay. The conditions noted are these: LMDs of pure DOTAP or DOTAP-analogue liposomes, FIG. 20. The procedure:
as §1, §2, §3
COS-7 cells were maintained in DMEM/10% FCS/1% penicillin-streptomycin (Gibco™) at 37° C./5% CO2 in a humidified atmosphere. Twenty-four hours prior to transfection, 10 000 cells per well were seeded in 48-well microtitre plates (Coming Costar) in 500 μl medium. Plasmid DNA and Transfast™ controls were prepared as above. 5 μl (0.5 μg DNA) of LMD formulation was added to each well. All experiments were performed in quadruplicate. The plate was swirled for 30 s, and incubated for 1 h at 37° C. Medium was then removed, and 500 μl of fresh medium was added. The cells were incubated at 37° C. for a further 24 h.
Medium was aspirated from the wells and the cell layer was washed with phosphate buffered saline (PBS) (Gibco™). The cells of each well were lysed in 150 μl lysis reagent (prepared according to the supplier's protocol; β-Gal Reporter Gene Assay, Roche Diagnostics GmbH, D-68305 Mannheim, Germany) at room temperature for 30 min. After lysis, […], 50 μl and 20 μl, of each cell suspension were used for the determination of β-galactosidase activity and for the determination of total cellular protein (to normalise results), respectively.
In the β-gal assay, 100 μl of the substrate reagent was added to 50 μl of the cell suspension in a white 96-well microplate (Coming Costar). […]

The subject of a further test is Panc-1 and COS-7 cells. In words: In vitro transfection of LMDs, overall statements without a single cell line. The conditions noted are these: cell line not stated or across Panc-1 and COS-7 cells. The procedure: as §1, with “The pH of the liposomal suspension was checked by pH Boy (Camlab Ltd., Over, Cambridgeshire, UK) and adjusted to pH 7.0±0.1 with concentrated aqueous solutions of HCl and NaOH.” left out
Liposomes were extruded (Extruder, Northern Upids, Inc., Vancouver, BC, Canada) by passing through two 100 nm polycarbonate filters (Isopore™ Membrane Filters, Millipore (UK) Ltd., Watford, Hertfordshire, UK) ten times. For each preparation, the size distribution of liposomes was measured by photon correlation spectroscopy (PCS) (Coulter® N4 Plus Submicron Particle Sizer, Beckman Coulter, High Wycombe, Buckinghamshire, UK). […]

Turning to `CCCCCCCC/C=C\CCCCCCCC(=O)OCC(C[N+](C)(C)C)OC(=O)CCCCCCC/C=C\CCCCCCCC` (stereo not drawn) [DOTAP], the “Transfection (β-galactosidase activity)” value in the test with Panc-1 cells was “transfect less well than the positive control Transfast”; in the test on COS-7 cells, “transfect similarly”. Further, in the test with Panc-1 and COS-7 cells, the “In vitro transfection, overall statement” value is “transfect worse than CDAN:DOPE, 1:1 liposomes; also recorded: generally poor”.
